# Read-outs that look alike come from different tables or passages of the source.
# Tests used:
# [1] = Antifungal assay, mycelium growth on PDA (fungi); conditions: 100 μg/ml; W. extensa, P placenta, L. sulphureus, G. trabeum and F. pinicola
# [2] = Antifungal activity on paper (CNS 2690, TAPPI T487 cm-93); conditions: A. terreus, 14 days
# [3] = Antifungal assay, mycelium growth on PDA containing the chemical; conditions: C. globosum; for Antifungal index (%): Table 2
# [4] = Antifungal activity on paper (CNS 2690, TAPPI T487 cm-93); conditions: A. niger, 14 days
# [5] = as above; conditions: C. globosum, 14 days
# [6] = Antifungal assay, mycelium growth on PDA containing the chemical; conditions: F. pinicola; for Antifungal index (%): Table 2
# [7] = as above; conditions: L. betulina; for Antifungal index: Example 3, FIG. 2(A)
# [8] = as above; conditions: L. sulphureus
# [9] = as above; conditions: S. commune; for Antifungal index (%): Table 2
# [10] = as above; conditions: W. extensa; for Antifungal index (%): Table 2
# [11] = as above; conditions: G. trabeum
# [12] = Antifungal assay, mycelium growth on PDA (fungi)
# [13] = Antifungal assay, mycelium growth on PDA containing the chemical; conditions: P. placenta; for Antifungal index (%): Table 2
# [14] = as above; conditions: A. taxa; for Antifungal index (%): Table 2
# [15] = as above; conditions: T. versicolor
# [16] = Antifungal assay, mycelium growth on PDA (fungi); conditions: soft rot, Cu tolerant, and brown rot fungi
# [17] = 100 μg/cm^2 on filter paper, listed as octyl gallate
# [18] = 400 μg/cm^2 on filter paper, listed as octyl gallate
# [19] = Example 1, FIG. 1(A), read-out: IC50 (concentration that inhibited 50% of the mycelium growth)
compound,measurement,setting,value
"CCCCCCCCOC(=O)c1cc(O)c(O)c(O)c1 [Octyl gallate, octyl gallate]","inhibition (antifungal index), span over five fungi",[1],75˜96%
same,Percent inhibition ratio,[2]; 100 μg/cm^2 on filter paper,51 ± 4.6%
same,Percent inhibition ratio,[2]; [17],51%
same,Percent inhibition ratio,[2]; 400 μg/cm^2 on filter paper,94 ± 8.5%
same,Percent inhibition ratio,[2]; [18],94%
same,Antifungal index (%),[3]; 25 μg/ml,82%
same,Antifungal index (%),[3]; 50 μg/ml,100%
same,Antifungal index (%),[3]; 200 μg/ml,100%
same,IC50 value,[3]; Table 3,<25 µg/mL
same,Percent inhibition ratio,[4]; 100 μg/cm^2 on filter paper,72 ± 7.6%
same,Percent inhibition ratio,[4]; [17],72%
same,Percent inhibition ratio,[4]; 400 μg/cm^2 on filter paper,99 ± 1.0%
same,Percent inhibition ratio,[4]; [18],99%
same,Percent inhibition ratio,[5]; 100 μg/cm^2 on filter paper,100 ± 0%
same,Percent inhibition ratio,[5]; [17],100%
same,Percent inhibition ratio,[5]; 400 μg/cm^2 on filter paper,100 ± 0%
same,Antifungal index (%),[6]; 25 μg/ml,52%
same,Antifungal index (%),[6]; 50 μg/ml,78%
same,Antifungal index (%),[6]; 100 μg/ml,94%
same,Antifungal index (%),[6]; 200 μg/ml,100%
same,IC50 value,[6]; Table 3,<25 µg/mL
same,Antifungal index,[7]; 25 μg/ml,16%
same,Antifungal index (%),"[7]; 25 μg/ml, Table 2",16%
same,Antifungal index (%),"[7]; 50 μg/ml, Table 2",28%
same,Antifungal index,[7]; 100 μg/ml,42%
same,Antifungal index (%),"[7]; 100 μg/ml, Table 1",43 ± 2.5%
same,Antifungal index (%),"[7]; 100 μg/ml, Table 2",41%
same,Antifungal index (%),"[7]; 200 μg/ml, Table 2",88%
same,IC50,[7]; [19],470 µM
same,IC50 value,[7]; Table 3,137.6 µg/mL
same,Antifungal index (%),"[8]; 50 μg/ml, Table 2",85%
same,Antifungal index (%),"[8]; 100 μg/ml, Table 1",100 ± 0%
same,Antifungal index (%),"[8]; 100 μg/ml, Table 2",96%
same,Antifungal index (%),"[8]; 200 μg/ml, Table 2",100%
same,IC50,[8]; [19],40 µM
same,IC50 value,[8]; Table 3,50.6 µg/mL
same,Antifungal index (%),[9]; 25 μg/ml,16%
same,Antifungal index (%),[9]; 50 μg/ml,40%
same,Antifungal index (%),[9]; 100 μg/ml,60%
same,Antifungal index (%),[9]; 200 μg/ml,83%
same,IC50 value,[9]; Table 3,114 µg/mL
same,Antifungal index (%),[10]; 25 μg/ml,3%
same,Antifungal index (%),[10]; 50 μg/ml,50%
same,Antifungal index (%),[10]; 100 μg/ml,75%
same,Antifungal index (%),[10]; 200 μg/ml,64%
same,IC50 value,[10]; Table 3,50 µg/mL
same,Antifungal index,"[11]; 25 μg/ml, Example 3, FIG. 2(B)",30%
same,Antifungal index (%),"[11]; 50 μg/ml, Table 2",49%
same,Antifungal index (%),"[11]; 100 μg/ml, Table 1",85 ± 26.2%
same,Antifungal index (%),"[11]; 100 μg/ml, Table 2",77%
same,Antifungal index (%),"[11]; 200 μg/ml, Table 2",93%
same,IC50,[11]; [19],240 µM
same,IC50 value,[11]; Table 3,50.8 µg/mL
same,"inhibition (antifungal index), span over three fungi","[12]; 100 μg/ml, L. betulina, T versicolor and S. commune",41˜69%
same,IC50 value,[12]; white rot fungi,less than 200 μg/ml
same,Antifungal index (%),[13]; 25 μg/ml,58%
same,Antifungal index (%),[13]; 50 μg/ml,75%
same,Antifungal index (%),[13]; 100 μg/ml,82%
same,Antifungal index (%),[13]; 200 μg/ml,84%
same,IC50 value,[13]; Table 3,<25 µg/mL
same,Antifungal index (%),[14]; 25 μg/ml,73%
same,Antifungal index (%),[14]; 50 μg/ml,100%
same,Antifungal index (%),[14]; 200 μg/ml,100%
same,IC50 value,[14]; Table 3,<25 µg/mL
same,Antifungal index (%),"[15]; 25 μg/ml, Table 2",37%
same,Antifungal index (%),"[15]; 50 μg/ml, Table 2",50%
same,Antifungal index (%),"[15]; 100 μg/ml, Table 1",69 ± 9.1%
same,Antifungal index (%),"[15]; 100 μg/ml, Table 2",69%
same,Antifungal index (%),"[15]; 200 μg/ml, Table 2",85%
same,IC50,[15]; [19],160 µM
same,IC50 value,[15]; Table 3,173 µg/mL
same,IC50 value,[16],less than 50 μg/ml

# From US20080132569A1, “Antifungal Compositions for Inhibiting Growth of Wood Decay Fungi and Use Thereof” (priority 2006, published 2008)
